In patent US20250064762A1, “A SUBSTITUTED AROMATIC DICARBONIC ACID AMIDE AS AN INHIBITOR OF THE FERROPTOSIS SUPPRESSOR PROTEIN-1 (FSP1)” (JULIUS-MAXIMILIANS-UNIVERSITÄT WÜRZBURG, priority 2021, published 2025):

What was measured:
[1] = system: LOX-IMVI human melanoma cells; test: FIN56-induced ferroptosis in LOX-IMVI cells with mock vector or FSP1-Venus; assay type: cell-based
Procedure: (§1) The following HT1080 fibrosarcoma cell lines were generated using CRISPR/Cas9 technology, as previously described (Doll et al., 2019): HT1080 GPX4-knockout (KO) cells (maintained in the presence of 100 μM α-tocopherol); HT1080 GPX4 knockout cells overexpressing FSP1 (GPX4-KO/FSP1-OE); GPX4-KO cells overexpressing FSP1 and re-expressing GPX4 (GPX4-KO/FSP1-OE/GPX4-OE); HT1080 FSP1-WT or FSP1-KO cells; and HT1080 FSP1-KO cells reconstituted with either FSP1-WT or FSP1-G2A. LOX-IMVI (BRAF V600E heterozygous human melanoma cells) expressing either the Venus mock vector or FSP1-Venus (Doll et al., 2019) were grown in RPMI-1640 supplemented with 10% FCS, 2 mM L-glutamine and Pen/Strep.
LOX-IMVI cells are FSP1-deficient, and were reconstituted with either mock vector (expressing Venus), or with FSP1-Venus to restore FSP1 expression, and treated with either CPBA or iFSP1 as described above (see FIG. 18B).

[2] = system: HT1080 cells; test: Lipid droplet staining with BODIPY 493/503; assay type: cell-based, human; details: CPBA 100 μM; T863 10 μM and PF-06424439 5 μM; 16 h
Procedure: HT1080 cells were seeded on glass coverslips (15,000 cells per well of 12-well plate) in complete DMEM, and incubated for 16 h with 100 μM CPBA or with 0.1% of the DMSO solvent control, in the absence or presence of inhibitors of DGAT1 and DGAT2 (10 μM T863/iDGAT1; 5 μM PF-06424439/iDGAT2). Cells were fixed with 4% para-formaldehyde, lipid droplets were stained with the neutral lipid droplet stain BODIPY 493/503 (2 μM, 30 min), and nuclei were counterstained with 4′,6-diamidino-2-phenylindole (DAPI). Cells were mounted with Immu-Mount (Fisher Scientific), and imaged by fluorescence microscopy on a THUNDER imager (THUNDER Imager Live Cell & 3D Cell Culture & 3D Assay system, Leica DMI8; Leica Microsystems), using a 63× objective.
We next investigated the impact of CPBA on triglyceride levels and ferroptosis sensitivity by first imaging lipid droplets with the neutral lipid stain BODIPY 493/503.
The diglyceride acyltransferase isoforms 1 and 2 (DGAT1, DGAT2) are required to catalyze the formation of triglycerides from diacylglycerol and acyl-CoA.

[3] = system: FSP1-WT or FSP1-KO HT1080 cells; test: FIN-induced ferroptosis in FSP1-WT or FSP1-KO cells; assay type: cell-based, human; details: iFSP1 10 μM, CPBA 100 μM; for extent of sensitization to ferroptosis in FSP1-WT cells: FIN56, BSO or RSL3, 16 h; for additional effect in FSP1-deficient cells: FSP1-KO HT1080
Procedure: as §1
(§2) Cells were seeded onto 96-well plates (5,000 cells per well), and treated with serial dilutions of ferroptosis-inducing compounds (erastin, BSO, RSL3, FIN56) or cytotoxic drugs (staurosporine, nocodazole, tunicamycin, paclitaxel, etoposide, menadione, rotenone, FCCP, carboplatin) in the absence or presence of CPBA or iFSP1 (100 μM or 10 μM, respectively; unless stated otherwise) or the DMSO solvent control. Ferroptotic cell death was evaluated by incubating in the absence or presence of liproxstatin-1 (100 nM), ferrostatin-1 (200 nM), or deferoxamine (100 μM). Cell viability was assessed after 16 h using AquaBluer as an indicator of viable cells according to the manufacturer's recommendations (MultiTarget Pharmaceuticals, LLC). Fluorescence (excitation, 540 nm; emission, 590 nm) was analyzed on a Clariostar microplater reader.
We next performed comparative experiments to compare the effect of CPBA with the effect of the small molecule FSP1 inihibitor iFSP1. To this end, we incubated FSP1-WT or FSP1-KO HT1080 cells with FIN56 (see FIG. 15), BSO (see FIG. 16) or RSL3 (see FIG. 17) to induce ferroptosis as described above. Lack of FSP1 expression in FSP1-KO cell lines was confirmed by Western Blot as described above (see FIG. 14).
Next, we compared the treatment of FSP1-WT and FSP1-KO cells with either iFSP1 or with CPBA (see FIGS. 15, 16 and 17).

[4] = system: mouse embryonic fibroblasts (MEFs), Hepa 1-6 mouse hepatocellular carcinoma cells; test: Concentration-dependent toxicity of FIN56 with CPBA or iFSP1 in mouse cells; assay type: cell-based; details: for sensitization to FIN56-induced ferroptosis in mouse cells: MEFs or Hepa 1-6 cells
Procedure: as §2
In order to test concentration-dependent toxicity of treatment with FIN56 and either CPBA or iFSP1, we treated mouse embryonic fibroblasts (MEFs, see FIG. 21A), or Hepa 1-6 mouse hepatocellular carcinoma cells (see FIG. 21B) with DMSO solvent control, or with the indicated concentrations of CPBA or iFSP1. Ferroptotic cell death was assessed by incubation in the absence or presence of liproxstatin-1 (lip-1; A, 500 nM; B, 250 nM).

[5] = system: GPX4-KO/FSP1-OE HT1080 cells; test: Viability of FSP1-dependent GPX4-KO cells with serial dilutions of CPBA, no FINs; assay type: cell-based, human; details: serial dilutions of CPBA, no FINs
Procedure: as §1
Next, we tested the effect of CPBA on ferroptotic cell death in GPX4-deficient HT1080 cells whose survival depends on the expression of FSP1 in order to suppress ferroptosis in the absence of GPX4. GPX4 knockout cells overexpressing FSP1 (GPX4-KO/FSP1-OE), or GPX4-KO cells overexpressing FSP1 and re-expressing GPX4 (GPX4-KO/FSP1-OE/GPX4-OE) were incubated with serial dilutions of CPBA. Note that no ferroptosis inducers (FINs) were added. Protein expression was confirmed by Western Blot as described above (see FIG. 11).

Row | SMILES | effect in cells reconstituted with FSP1-Venus ([1]; CPBA- and FIN56-treated cells) | enhancement of the ferroptosis-inducing effect of FIN56 ([1]; FSP1-deficient cells (mock vector)) | lipid droplets [2] | extent of sensitization to ferroptosis in FSP1-WT cells [3] | additional effect in FSP1-deficient cells [3] | sensitization to FIN56-induced ferroptosis in mouse cells [4] | cell death of GPX4-KO, FSP1-dependent cells [5] | effectiveness in LOX-IMVI cells ([1]; as described previously (Doll et al., Nature 2019)) | concentrations that are non-specifically toxic to cells ([4]; 16 h)
1 | O=C(Nc1ccccc1C(=O)O)c1ccc(Oc2ccc(C(=O)Nc3ccccc3C(=O)O)cc2)cc1 [CPBA, 2-[[4-[4-[(2-carboxyphenyl)carbamoyl]phenoxy]benzoyl]amino]-benzoic acid] | FSP1-expression rescues CPBA- and FIN56-treated cells from ferroptosis | does not enhance the ferroptosis-inducing effect of FIN56 in FSP1-deficient cells | triggered the accumulation of lipid droplets in HT1080 cells | comparable to the effect of FSP1-deficiency | no additional effect of iFSP1 or CPBA is observed in FSP1-deficient cells | sensitizes MEFs or Hepa 1-6 cells to FIN56-induced ferroptosis | die in a CPBA concentration-dependent manner | – | –
2 | Cc1ccc(-c2c(C#N)c(N)n3c(nc4ccccc43)c2C#N)cc1 [iFSP1, reference compound] | – | – | – | slightly smaller than the effect of CBPA in all conditions | no additional effect of iFSP1 or CPBA is observed in FSP1-deficient cells | does not have an effect on mouse cell lines | – | ineffective in LOX-IMVI cells | > 10 µM
